What follows are compounds tested against T1, ER (Homo sapiens, UniProt P03372) (assay: ER degradation activity, in-cell western blot analysis in T47D cells). Conditions: 16 hours, Table A does not say which cell line (T47D or MCF7), read-out: Potency (DC50).
T1 construct: host or cells: T47D and MCF7 human breast cancer cells
T1 sequence (P03372 1-595): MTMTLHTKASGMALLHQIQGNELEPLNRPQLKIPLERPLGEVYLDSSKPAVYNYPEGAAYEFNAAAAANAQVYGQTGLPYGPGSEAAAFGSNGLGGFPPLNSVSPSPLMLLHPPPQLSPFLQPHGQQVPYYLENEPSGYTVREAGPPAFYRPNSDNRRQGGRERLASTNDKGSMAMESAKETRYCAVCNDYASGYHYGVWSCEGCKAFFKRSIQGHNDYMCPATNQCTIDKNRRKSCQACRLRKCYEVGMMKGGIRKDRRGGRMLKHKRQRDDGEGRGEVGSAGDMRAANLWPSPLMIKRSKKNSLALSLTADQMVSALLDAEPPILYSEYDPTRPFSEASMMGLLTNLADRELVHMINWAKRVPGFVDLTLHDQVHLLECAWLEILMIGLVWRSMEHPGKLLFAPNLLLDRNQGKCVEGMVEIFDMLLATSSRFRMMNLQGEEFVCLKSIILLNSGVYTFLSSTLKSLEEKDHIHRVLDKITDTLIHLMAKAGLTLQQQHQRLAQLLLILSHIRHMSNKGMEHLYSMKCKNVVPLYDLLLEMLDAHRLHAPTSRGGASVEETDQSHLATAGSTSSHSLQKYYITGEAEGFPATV
Assay type: cell-based
Summary of the method: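 T47D cells cultured in DMEM with 10% FBS, treated with compounds (final 0.5% DMSO) for 16 h. ER level measured by in-cell western with anti-rabbit-680/anti-mouse-800 near-infrared detection. Relative ER percentage calculated against untreated and DMSO-treated wells set as 100%.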

SMILES | DC50
O=C1CCC(N2C(=O)c3cc4c(cc3C2=O)CN(CC(=O)N2CCC3(CC2)CCN(c2cc(F)c([C@@H]5c6ccc(O)cc6CC[C@@H]5c5ccccc5)c(F)c2)CC3)C4)C(=O)N1 (mixture of isomers) [E 176, Rac-6-(2-(9-(3,5-difluoro-4-((1S,2S)-6-hydroxy-2-phenyl-1,2,3,4-tetrahydronaphthalen-1-yl)phenyl)-3,9-diazaspiro[5.5]undecan-3-yl)-2-oxoethyl)-2-(2,6-dioxopiperidin-3-yl)-6,7-dihydropyrrolo[3,4-f]isoindole-1,3(2H,5H)-dione] | > 100 nM
O=C1CCC(N2C(=O)c3cc4c(cc3C2=O)CN(C(=O)CN2CC3(CCN(c5ccc([C@@H]6c7ccc(O)cc7CC[C@@H]6c6ccc(F)cc6)cc5)CC3)C2)C4)C(=O)N1 (mixture of isomers) [E 127, 2-(2,6-dioxopiperidin-3-yl)-6-(2-(7-(4-((1R,2S)-2-(4-fluorophenyl)-6-hydroxy-1,2,3,4-tetrahydronaphthalen-1-yl)phenyl)-2,7-diazaspiro[3.5]nonan-2-yl)acetyl)-6,7-dihydropyrrolo[3,4-f]isoindole-1,3(2H,5H)-dione] | 10 to 100 nM
C[C@@H]1Cc2c([nH]c3ccccc23)[C@@H](c2ccc(N3CCC(C(=O)N4CCC(N5Cc6cc7c(cc6C5)C(=O)N(C5CCC(=O)NC5=O)C7=O)CC4)CC3)cc2)N1CC(F)F (stereo partly drawn) [E 263, 6-(1-(1-(4-((1R,3R)-2-(2,2-difluoroethyl)-3-methyl-2,3,4,9-tetrahydro-1H-pyrido[3,4-b]indol-1-yl)phenyl)piperidine-4-carbonyl)piperidin-4-yl)-2-(2,6-dioxopiperidin-3-yl)-6,7-dihydropyrrolo[3,4-f]isoindole-1,3(2H,5H)-dione] | 10 to 100 nM
O=C1CCC(N2C(=O)c3cc4c(cc3C2=O)CN(CC2(F)CN(CC3CCN(c5ccc([C@@H]6c7ccc(O)cc7CC[C@@H]6c6ccccc6)cc5)CC3)C2)C4)C(=O)N1 (stereo partly drawn) [E 212, 2-(2,6-dioxopiperidin-3-yl)-6-((3-fluoro-1-((1-(4-((1R,2S)-6-hydroxy-2-phenyl-1,2,3,4-tetrahydronaphthalen-1-yl)phenyl)piperidin-4-yl)methyl)azetidin-3-yl)methyl)-6,7-dihydropyrrolo[3,4-f]isoindole-1,3(2H,5H)-dione] | > 100 nM
C[C@@H]1Cc2c([nH]c3ccccc23)[C@@H](c2c(F)cc(N3CCC(CN4CC(C(=O)N5Cc6cc7c(cc6C5)C(=O)N(C5CCC(=O)NC5=O)C7=O)C4)CC3)cc2F)N1CC(F)F (stereo partly drawn) [E 239, 6-(1-((1-(4-((1R,3R)-2-(2,2-difluoroethyl)-3-methyl-2,3,4,9-tetrahydro-1H-pyrido[3,4-b]indol-1-yl)-3,5-difluorophenyl)piperidin-4-yl)methyl)azetidine-3-carbonyl)-2-(2,6-dioxopiperidin-3-yl)-6,7-dihydropyrrolo[3,4-f]isoindole-1,3(2H,5H)-dione] | > 100 nM
O=C1CCC(N2C(=O)c3cc4c(cc3C2=O)CN(CC2CCN(CC3CN(c5ccc([C@@H]6c7ccc(O)cc7CC[C@@H]6c6ccccc6)cc5)C3)CC2)C4)C(=O)N1 (stereo partly drawn) [E244, 2-(2,6-dioxopiperidin-3-yl)-6-((1-((1-(4-((1R,2S)-6-hydroxy-2-phenyl-1,2,3,4-tetrahydronaphthalen-1-yl)phenyl)azetidin-3-yl)methyl)piperidin-4-yl)methyl)-6,7-dihydropyrrolo[3,4-f]isoindole-1,3(2H,5H)-dione] | 10 to 100 nM
O=C1CCC(N2C(=O)c3cc4c(cc3C2=O)CN(CC2CCN(CC3CN(c5ccc([C@@H]6c7ccc(O)cc7CC[C@@H]6c6ccc(F)cc6)cc5)C3)CC2)C4)C(=O)N1 (stereo partly drawn) [E 277, 2-(2,6-dioxopiperidin-3-yl)-6-((1-((1-(4-((1R,2S)-2-(4-fluorophenyl)-6-hydroxy-1,2,3,4-tetrahydronaphthalen-1-yl)phenyl)azetidin-3-yl)methyl)piperidin-4-yl)methyl)-6,7-dihydropyrrolo[3,4-f]isoindole-1,3(2H,5H)-dione] | > 100 nM
O=C1CCC(N2C(=O)c3cc4c(cc3C2=O)CN(Cc2ccc(N3CCN(c5ccc([C@@H]6c7ccc(O)cc7CC[C@@H]6c6ccccc6)cc5)CC3)nc2)C4)C(=O)N1 (stereo partly drawn) [E 311, 2-(2,6-dioxopiperidin-3-yl)-6-((6-(4-(4-((1R,2S)-6-hydroxy-2-phenyl-1,2,3,4-tetrahydronaphthalen-1-yl)phenyl)piperazin-1-yl)pyridin-3-yl)methyl)-6,7-dihydropyrrolo[3,4-f]isoindole-1,3(2H,5H)-dione] | > 100 nM
O=C1CCC(N2C(=O)c3cc4c(cc3C2=O)CN(C(=O)CN2CCC3(CC2)CCN(c2c(F)cc([C@@H]5c6ccc(O)cc6CC[C@@H]5c5ccccc5)cc2F)C3)C4)C(=O)N1 (mixture of isomers) [E 155, Rac-6-(2-(2-(2,6-difluoro-4-((1R,2S)-6-hydroxy-2-phenyl-1,2,3,4-tetrahydronaphthalen-1-yl)phenyl)-2,8-diazaspiro[4.5]decan-8-yl)acetyl)-2-(2,6-dioxopiperidin-3-yl)-6,7-dihydropyrrolo[3,4-f]isoindole-1,3(2H,5H)-dione] | > 100 nM

Further lines, results first:

DC50 | SMILES
> 100 nM | C[C@@H]1Cc2c([nH]c3ccccc23)[C@@H](c2cnc(C3=CCC(C(=O)N4CCC(N5Cc6cc7c(cc6C5)C(=O)N(C5CCC(=O)NC5=O)C7=O)CC4)CC3)nc2)N1CC(F)F (stereo partly drawn) [E 315, 6-(1-(4-(5-((1R,3R)-2-(2,2-difluoroethyl)-3-methyl-2,3,4,9-tetrahydro-1H-pyrido[3,4-b]indol-1-yl)pyrimidin-2-yl)cyclohex-3-ene-1-carbonyl)piperidin-4-yl)-2-(2,6-dioxopiperidin-3-yl)-6,7-dihydropyrrolo[3,4-f]isoindole-1,3(2H,5H)-dione]
< 10 nM | C[C@@H]1Cc2cc(O)ccc2[C@@H](c2ccc(N3CCC(C(=O)N4CCC(N5Cc6cc7c(cc6C5)C(=O)N(C5CCC(=O)NC5=O)C7=O)CC4)CC3)cc2F)N1CC(F)F (stereo partly drawn) [E 323, 6-(1-(1-(4-((1S,3R)-2-(2,2-difluoroethyl)-6-hydroxy-3-methyl-1,2,3,4-tetrahydroisoquinolin-1-yl)-3-fluorophenyl)piperidine-4-carbonyl)piperidin-4-yl)-2-(2,6-dioxopiperidin-3-yl)-6,7-dihydropyrrolo[3,4-f]isoindole-1,3(2H,5H)-dione]
10 to 100 nM | C[C@@H]1Cc2cc(O)ccc2[C@@H](c2ccc(C3CCC(C(=O)N4CCC(N5Cc6cc7c(cc6C5)C(=O)N(C5CCC(=O)NC5=O)C7=O)CC4)CC3)cc2F)N1CC(F)F (stereo partly drawn) [E 317, 6-(1-(4-(4-((1S,3R)-2-(2,2-difluoroethyl)-6-hydroxy-3-methyl-1,2,3,4-tetrahydroisoquinolin-1-yl)-3-fluorophenyl)cyclohexane-1-carbonyl)piperidin-4-yl)-2-(2,6-dioxopiperidin-3-yl)-6,7-dihydropyrrolo[3,4-f]isoindole-1,3(2H,5H)-dione]

Same assay, conditions: compounds 16 hours, Table A does not say whether T47D or MCF7, read-out: Potency (DC50)

DC50 | SMILES
> 100 nM | COc1cc([C@H]2CC[C@@H](C(=O)N3CCC(N4Cc5cc6c(cc5C4)C(=O)N(C4CCC(=O)NC4=O)C6=O)CC3)CC2)ncc1[C@@H]1c2[nH]c3ccccc3c2C[C@@H](C)N1CC(F)F (stereo partly drawn) [E 396, 6-(1-((1S,4s)-4-(5-((1R,3R)-2-(2,2-difluoroethyl)-3-methyl-2,3,4,9-tetrahydro-1H-pyrido[3,4-b]indol-1-yl)-4-methoxypyridin-2-yl)cyclohexane-1-carbonyl)piperidin-4-yl)-2-(2,6-dioxopiperidin-3-yl)-6,7-dihydropyrrolo[3,4-f]isoindole-1,3(2H,5H)-dione]
10 to 100 nM | O=C1CCC(N2C(=O)c3cc4c(cc3C2=O)CN(CC(=O)N2CCC3(CC2)CCN(c2ccc([C@@H]5c6ccc7[nH]ncc7c6CC[C@@H]5c5ccccc5)cc2)CC3)C4)C(=O)N1 (stereo partly drawn) [E 423, 2-(2,6-dioxopiperidin-3-yl)-6-(2-oxo-2-(9-(4-((6R,7S)-7-phenyl-6,7,8,9-tetrahydro-3H-benzo[e]indazol-6-yl)phenyl)-3,9-diazaspiro[5.5]undecan-3-yl)ethyl)-6,7-dihydropyrrolo[3,4-f]isoindole-1,3(2H,5H)-dione]
< 10 nM | C[C@@H]1Cc2cc(O)ccc2[C@@H](c2ccc(C(=O)N3CC4(CCN(C(=O)CN5Cc6cc7c(cc6C5)C(=O)N(C5CCC(=O)NC5=O)C7=O)CC4)C3)cc2)N1CC(F)F (stereo partly drawn) [E 459, 6-(2-(2-(4-((1R,3R)-2-(2,2-difluoroethyl)-6-hydroxy-3-methyl-1,2,3,4-tetrahydroisoquinolin-1-yl)benzoyl)-2,7-diazaspiro[3.5]nonan-7-yl)-2-oxoethyl)-2-(2,6-dioxopiperidin-3-yl)-6,7-dihydropyrrolo[3,4-f]isoindole-1,3(2H,5H)-dione]
> 100 nM | O=C1CCC(N2Cc3cc4c(cc3C2=O)CN(C2CN(CC3CCN(c5ccc([C@@H]6c7ccc(O)cc7CC[C@@H]6c6ccccc6)cc5)CC3)C2)C4=O)C(=O)N1 (stereo partly drawn) [E 505, 2-(2,6-dioxopiperidin-3-yl)-6-(1-((1-(4-((1R,2S)-6-hydroxy-2-phenyl-1,2,3,4-tetrahydronaphthalen-1-yl)phenyl)piperidin-4-yl)methyl)azetidin-3-yl)-2,3,6,7-tetrahydropyrrolo[3,4-f]isoindole-1,5-dione]

From US20240190880A1 (THE REGENTS OF THE UNIVERSITY OF MICHIGAN, priority 2021, published 2024)
